Laboratory results reported in paper PMC8011576 (Nature biomedical engineering, 2020).
“Also recorded” adds a separate entry of the source. Read-outs that look alike come from different tables or passages of the source.

How the values were obtained:
OCT2 = test: Western blot of OCT2 in Kidney Chip; assay type: cell-based, human; details: cisplatin exposure, Western blot vs controls
[1] = rodent in vivo; ref Yamazaki et al [35]; cited from earlier work
[2] = 396±16 μM nicotine infused into Gut Chip lumen for 84 hrs, MS
[3] = cited from earlier work
Gut Chip = details: nicotine in epithelial lumen
[4] = Human clinical nicotine PK; assay type: in vivo; details: blood, oral, 16 μM
[5] = tested on: intestinal epithelial cells and endothelial cells in Transwell inserts; details: nicotine, same intestinal epithelial and endothelial cells
Liver Chip = test: Albumin production in Liver Chip; assay type: cell-based, human; details: nicotine exposure, linked chips
CYP3A4 = details: nicotine exposure, linked chips
[6] = tested on: first pass human Organ Chips; details: nicotine exposure, linked Gut, Liver, Kidney Chips
[7] = human clinical data, ref Digard et al. [28]

With `N.N.[Cl][Pt][Cl]` [Cisplatin, cisplatin] the “OCT2 expression in the Kidney Chip” value (OCT2) was “increased; also recorded: upregulation”.
In the case of `CN1CCC[C@H]1c1cccnc1` [Nicotine, nicotine], the “Kidney Renal Clearance, CLR” value [1] is given as 5.5 ml/min/kg.BW, the “Liver Intrinsic Clearance, CLint” value [1] is given as 300 ml/min/kg.BW and the “maximum level measured in the AV Reservoir” value [2] is given as 0.8 ± 0.08 µM. For the same molecule, the unbound in vivo ([3]; clinical studies) was 40%, the “Liver Intrinsic Clearance, CLint” value [3, 7] was 12.5 ml/min/kg.BW and the “Liver Secondary Intrinsic Clearance, CLint, sec” value [3, 7] was 0.74 ml/min/kq.BW. For the same molecule, the “intestinal barrier function of the Gut Chip, inulin tracer” value (Gut Chip) was “could not detect any effect”, the “intestinal barrier function of the Gut Chip, Cascade Blue tracer” value (Gut Chip; P < 0.03) was “significantly increased” and the half-life [4] was 10.6 min. For the same molecule, the “barrier change by TEER in static Transwell inserts” value [5] was “did not detect a barrier change”, the “albumin production in the Liver Chip” value (Liver Chip) was “remained unchanged” and the “CYP3A4 activity in the Gut Chip” value (CYP3A4) was “remained unchanged”. The “toxicity (LDH release) in first pass human Organ Chips” value [6] was “did not detect toxicity”.
